According to patent publication US20050084490A1, “Boroproline compound combination therapy” (Point Therapeutics, Inc., priority 2002, published 2005):

Legend:
[1] = tested on: cytokine and chemokine genes; test: Cytokine and chemokine gene expression (Affymetrix GeneChips) in lymph nodes and WEHI 164 tumors; format: in vivo, mice; conditions: 5 μg twice daily
Method: (§1) Mice were inoculated with WEHI 164 cells, and starting 2 days later, administered (twice daily) a 5 μg dose of PT-100 or saline (control). RNA extracted from lymph nodes and tumors 2 hours after the first dose of PT-100 on day 4 after tumor inoculation was processed, labeled and hybridized to Affymetrix GeneChips according to the manufacturer's instructions. The log ratio of expression values (PT-100 treated:saline treatment) has been plotted on the ordinates for the cytokine and chemokine genes indicated on the abscissae. Zero values indicate that gene expression was either undetectable or unaffected by PT-100 treatment.
as §1, with “tumors 30 minutes or” for “tumors”, “ratios for” for “ratio of”, “have” for “has”, “cytokine” for “cytokine and chemokine”, “treatment. […]” for “treatment.”

WEHI 164 tumor cells = test: WEHI 164 tumor growth and rejection in euthymic and athymic BALB/c mice; format: in vivo; conditions: 5 μg dose; for tumor growth (tumor volume): day 2 until day 20 after tumor inoculation
Method: Normal euthymic BALB/c mice (+/+) or athymic BALB/c mice that are congenitally deficient in mature T lymphocytes (nu/nu) were inoculated with WEHI 164 tumor cells. The mice were administered a 5 μg dose of PT-100 or saline (control) from day 2 until day 20 after tumor inoculation and tumor volumes ([…]) were measured at the times indicated on the ordinate. Each treatment group contained 10 replicate mice. […] In euthymic mice, however, tumors were completely rejected by day 20 in 40 per cent of the mice treated with PT-100 whereas tumor rejection was not observed in PT-100 treated athymic mice. In the WEHI 164 tumor model, tumor rejection never occurred spontaneously in control mice. […] The data are consistent with a mechanism of action involving increased production of cytokines and chemokines in mice treated with PT-100 as described in Example 1.

Namalwa cells = test: NOD/SCID mouse model of Burkitt's Non-Hodgkin's Lymphoma; format: in vivo, NOD/SCID mice; conditions: Namalwa subcutaneous tumors; PT-100 5 μg twice daily day 2 to 20; antibody or normal human IgG 1.5 mg on days 3, 5 and 7
Method: Immunodeficient NOD/SCID mice were inoculated with Namalwa cells derived from a Burkitt's NHL. The human lymphoma cells proliferated in the immunodeficient mice to form solid subcutaneous tumors. Mice were administered 1.5 mg of normal human lgG or 1.5 mg of a human CD20-specific antibody (Rituxan) on each of days 3, 5 and 7 after tumor inoculation. Additional treatments with 5 μg PT-100 administered twice daily from day 2 until day 20 after tumor inoculation were given as indicated in the Figure Legend. The four treatment groups each contained 4 or 5 replicate mice. The data represent mean tumor volumes (±SE). Control treatment with normal human IgG had no effect on tumor growth as compared with saline treatment (data not shown). […] The data support the concept that when combined together, PT-100 and a tumor-specific antibody can have a greater growth inhibitory effect against a tumor than either treatment by itself.

IL-1β, G-CSF and KC [2] = test: ELISA of IL-1β, G-CSF and KC in serum and spleen extracts of BALB/c mice; format: in vivo; conditions: 20 μg oral, 8 hours after administration
Method: BALB/c mice were orally administered 20 μg PT-100 or saline as indicated on the abscissae. Eight hours after PT-100 administration, IL-1β, G-CSF and KC levels were determined by ELISA (R&D Systems) of serum and extracts of spleens. Cytokine and chemokine levels are indicated on the ordinate as pg/ml or ng/ml of serum, and as pg/mg or ng/mg of protein in each spleen extract as determined by BCA protein assays (Pierce).

IL-1β, G-CSF and KC [3] = test: ELISA of IL-1β, G-CSF and KC in serum and spleen extracts of B6 and IL-1 receptor-1 mutant mice; format: in vivo; conditions: 40 or 160 μg oral, 8 hours
Method: Normal B6 mice (+/+) and congenic B6.129S7-Illr1^tmllmx mice with a targeted mutation of the IL-1 receptor-1 (−/−) were orally administered 40 or 160 μg of PT-100 or saline as indicated on the abscissae. 8-hours after PT-100 administration, IL-1β, G-CSF and KC levels were determined by ELISA of serum and extracts of spleen. Cytokine and chemokine levels are indicated on the ordinate as pg/ml or ng/ml of serum, and as pg/mg or ng/mg of protein in each spleen extract as determined by BCA protein assays.

[4] = IL-1 receptor-1 mutant (−/−) mice

Row | Molecule | cytokine and chemokine gene expression in tumor and draining inguinal lymph nodes ([1]; WEHI 164 tumor mice, 2 hours after first dose on day 4 after tumor inoculation) | IL-1β mRNA levels in lymph nodes ([1]; oral, 30 minutes vs 2 hours after first dose on day 4, inguinal lymph nodes draining WEHI 164 tumors) | tumor growth (tumor volume) (WEHI 164 tumor cells; athymic BALB/c (nu/nu) mice) | tumor rejection (WEHI 164 tumor cells; athymic BALB/c mice, day 2 until day 20) | mice with tumors completely rejected by day 20 (WEHI 164 tumor cells; euthymic BALB/c mice, day 2 until day 20) | tumor growth (tumor volume) (WEHI 164 tumor cells; normal euthymic BALB/c (+/+) mice) | tumor growth (mean tumor volume) (Namalwa cells) | G-CSF levels in serum (IL-1β, G-CSF and KC [2]; serum) | IL-1β serum levels (IL-1β, G-CSF and KC [2]; serum) | KC levels in serum (IL-1β, G-CSF and KC [2]; serum) | G-CSF levels in spleen (IL-1β, G-CSF and KC [2]; spleen extract) | IL-1β levels in spleen tissue (IL-1β, G-CSF and KC [2]; spleen extract) | KC levels in spleen (IL-1β, G-CSF and KC [2]; spleen extract) | IL-1β levels in the spleen (IL-1β, G-CSF and KC [3]; IL-1 receptor-1 mutant (−/−) mice compared to normal B6 mice) | serum G-CSF levels (IL-1β, G-CSF and KC [3]; [4]) | serum KC levels (IL-1β, G-CSF and KC [3]; [4]) | splenic G-CSF levels (IL-1β, G-CSF and KC [3]; [4]) | splenic KC levels (IL-1β, G-CSF and KC [3]; [4])
1 | CC(C)[C@H](N)C(=O)N1CCC[C@H]1B(O)O [PT-100, Val-boroPro] | selective induction of cytokine and chemokine gene expression | increase in lymph nodes before those of other cytokines | significantly inhibited tumor growth | not observed | 40 per cent of the mice | significantly inhibited tumor growth | significantly (p<0.05) inhibited tumor growth | increased in both spleen and serum | without increasing serum levels | increased in both spleen and serum | increased in both spleen and serum | increases IL-1β levels in spleen tissue | increased in both spleen and serum | could still increase IL-1β levels in the spleen; but the magnitude of the response was greatly reduced | essentially unaffected | essentially unaffected | essentially unaffected | essentially unaffected
2 | Rituxan: human CD20-specific antibody (anti-CD20 mAb rituximab) [reference compound] |  |  |  |  |  |  | significantly (p<0.05) inhibited tumor growth |  |  |  |  |  |  |  |  |  |  | 
